What was measured:
[1] = test system: miR-16, miR-28, miR-182, miR-10a, miR-21, miR-155; test: RT-qPCR of other micro-RNAs (selectivity); assay type: cell-based, human; settings: AGS and AsPC1 cell lines; normalized to U6
U251 cell line = test: MTS proliferation assay, U251; assay type: cell-based, human; settings: 5 and 10 μM, beginning at 48 h of treatment
Protocol: (§1) IC50 dose-response curves were determined using the cell proliferation assay system. Briefly, 5,000 or 10,000 cells of each cell line were plated in 96-well microculture plates in replicates of either 4 or 6. When cells became adherent, either 5 or 10 sequentially decreasing doses of the small molecule miRNA inhibitor were diluted into new media and added to individual wells. After either 24 or 48 hours, of a tetrazolium salt such as MTS, MTT, or WST-8 was added to each well at the same time of day as treatment and incubated for either 2 or 3 h at 37° C. The OD, measuring at the appropriate wavelength for the dye, was read at on a microplate spectrophotometer.
(§2) Cell proliferation is determined using a colorimetric assay. A tetrazolium salt such as MTS, MTT, or WST-8 is reduced by dehydrogenase activities in cells to give a formazan dye, which is soluble in the tissue culture media. The amount of the formazan dye (generated by the activities of dehydrogenases in cells, and directly proportional to the number of living cells) is measured after 3 h of incubation. The OD is read at 450 nm on a microplate spectrophotometer and growth values (%) are calculated as (OD treated cells/OD untreated cells)×100. The experiments are performed in triplicate. […] The OD is read at 450/550 nm on a microplate spectrophotometer, after one to seven days of the treatment. […]

LN229 cell line = test: MTS proliferation assay, LN229; assay type: cell-based, human; settings: 5 and 10 μM, beginning at 48 h of treatment
Protocol: as §1, §2

[2] = test system: U251, LN229, AGS, AsPC1 cell lines; test: Cell viability IC50 dose-response curves; assay type: cell-based, human; settings: majority of cell lines (U251, LN229, AGS, AsPC1); values not given
Protocol: as §1

U251 brain cancer line = test: Clonogenic assay; assay type: cell-based, human; settings: dose-dependent, 1 μM up to 5 μM, two weeks
Protocol: In vitro clonogenic assays were conducted with adherent lines seeded in 12-well plates, treated for two weeks, and stained with crystal violet.

AGS gastric cell line = test: Annexin V/PI apoptosis assay by flow cytometry, AGS; assay type: cell-based, human; settings: up to 10 μM, 48 h
Protocol: In 6-well plates, 1×10^5 cells/mL were added into each well. After 24 h, sequential concentrations of DMSO and 4 based were administered and the plates were incubated for 48 h. The supernatant and adherent cells were collected and centrifugated. Each dose was done in triplicate, with each sample composing two wells. For apoptosis analysis, the supernatant was discarded after centrifugation and the pellet washed with PBS twice. Then, BD Annexin V-FITC/PI used to stain the cells for analysis via flow cytometry on the Gallios machine. For cell cycle analysis, after washing with PBS, cells were fixed with ethanol and incubated. They, were treated with RNase enzyme and analyzed.

PTEN [3] = test: Western blot, PTEN expression; assay type: cell-based, human
Protocol: (§3) Proteins are collected from cultured cells and lysed with 10× Lysis Buffer (Cell Signaling) freshly supplemented with a complete protease inhibitor cocktail and phosphatase inhibitors (Sigma). Bradford assay is used to measure protein concentration. Proteins are separated by polyacrylamide gel (Bio-rad) electrophoresis and were transferred to a 0.2 μm nitrocellulose membrane (Bio-rad). Quantification of protein expression was conducted using the image analysis software ImageJ.

PTEN [4] = test: Proteomics (RPPA), PTEN expression; assay type: cell-based, human; set-up: dose or concentration left out as unconfirmed; settings: U251
Protocol: Proteomics analysis was conducted at the Reverse Phase Protein Array Core facility at MD Anderson Cancer Center. Briefly, controls and treated samples were analyzed in triplicate for 486 unique antibodies. The outputs were then normalized for protein loading and transformed to the linear value, and the normalized data was logy transformed (log2(x+1)) and sorted by FDR-adjusted p-values with a significance level of p<0.05. Differentially expressed proteins between groups were identified using the moderated t-test from LIMMA package. […] Analyses and graphical representations were carried out in R. When preparing the data for analysis, the loge fold change was calculated and adjusted p-value was used for analysis. Gene symbols were converted using the DAVID bioinformatics resource and the clusterProfiler data visualization and analysis package was used for pathway enrichment analysis. For pathway analysis, the Hallmark gene set and Gene Ontology was used for gene set and pathway enrichment.

PDGF = test: Western blot, PDGF expression; assay type: cell-based, human; settings: LN229 and U251 brain cancer cell lines
Protocol: as §3

AsPC1 cell line = test: Migration assay, AsPC1; assay type: cell-based, human; settings: vs DMSO
[5] = test system: human pre-miR-10b RNA hairpin; test: NMR detection of compound binding to miRNA
Protocol: The human pre-miR-10b RNA hairpin sequence (nucleotides 40-75, per miRbase) was transcribed enzymatically and purified using methods previously described. The NMR screening buffer consisted of 20 mM Bis-Tris-d19 at pH 6.5, 10 mM NaCl, 0.2% Tween-20, and 11.1 μM DSA as chemical shift reference (integrates to 100 μM), prepared in 99.99% D2O or 95%H2O/5%D2O. Each ligand was first dissolved in DMSO to a 10 mM stock concentration. Free ligand screening samples were prepared at a final DMSO concentration of […] at a concentration of 100 μM in NMR screening buffer. For RNA target detected experiments, the lyophilized RNA pellets were dissolved in DMSO-free NMR screening buffer and heated for 4 min at 90° C., then snap cooled for 5 min at −20° C. ^1D-^1H experiments for both ligand and RNA were collected using the Bruker “zgesgp” excitation sculpting pulse sequence to suppress background water signal. Data was collected with 64 scans and 16K data points. Data was processed using 16K zero points, then Fourier transformed followed by manual phase and baseline correction. 2D-^1H TOCSY experiments were collected using the Bruker “mlevesgpph” pulse sequence with excitation sculpting water suppression, data collected with 32 scans, 2K×512 data points, a recycle delay of 1.2 s, and spin-lock mixing time of 80 ms. […]

Cc1ccc(F)c(NC(=O)Nc2ccc(-c3cccc4cn[nH]c34)cc2)c1 [Example 4, 1-(4-(1H-indazol-7-yl)phenyl)-3-(2-fluoro-5-methylphenyl)urea]
selectivity for miR-10b over other micro-RNAs [1]: selectivity of compound 4 for miR-10b becomes apparent | proliferation (MTS), every 24 h over 96 h (U251 cell line): significant difference in proliferation | proliferation (MTS), every 24 h over 96 h (LN229 cell line): significant difference in proliferation | IC50 at 48 h compared with IC50 at 24 h [2]: lower than the corresponding IC50 value at 24 h | formation of colonies (U251 brain cancer line): suppressed the formation of colonies | apoptotic cells (AGS gastric cell line): gradual increase | PTEN expression (Western blot) (PTEN [3]; LN229 brain cancer cell line): upregulation of PTEN | PTEN expression (Western blot) (PTEN [3]; U251 brain cancer cell line): upregulation of PTEN | PTEN expression (proteomics) (PTEN [4]): significantly upregulated | PDGF expression (Western blot) (PDGF): low to very slight variations | migration (AsPC1 cell line): decreased migration | target detect 2D 1H-1H TOCSY, binding to pre-miR-10b ([5]; 50 μM pre-miR-10b titrated with 100 μM, largest shifts U6, U7, U8, U26, C27, C29, U33): directly binds to the hairpin structure of precursor miR-10b | ligand detected 1D-1H line broadening (peak signal free vs bound) ([5]; ligand with pre-miR-10b sequence, methyl protons, indicative of direct binding): large decrease in peak signal

Reference: patent US20230145868A1, “UREA INHIBITORS OF MICRO-RNA” (Board of Regents, The University of Texas System, priority 2020, published 2023)
